Experimental data published in US9714222B2, “Methods and compositions for treating Ewings sarcoma family of tumors” (GEORGETOWN UNIVERSITY, priority 2012, dated 2017).

Tests used:
EWS-FLI1 and ESFT cells = details: cited from earlier work
EWS-FLI1/RHA interaction = biological target: T1, EWS-FLI1/RHA interaction (Homo sapiens, UniProt Q01543+Q01844); assay: Immunoblot of co-precipitated protein lysates from treated TC32 cells; format: cell-based; details: FIG. 4
T1 construct: endogenous in cells; host or cells: TC32 cells
T1 sequence (Q01844+Q01543 with tags, fused parts or gaps): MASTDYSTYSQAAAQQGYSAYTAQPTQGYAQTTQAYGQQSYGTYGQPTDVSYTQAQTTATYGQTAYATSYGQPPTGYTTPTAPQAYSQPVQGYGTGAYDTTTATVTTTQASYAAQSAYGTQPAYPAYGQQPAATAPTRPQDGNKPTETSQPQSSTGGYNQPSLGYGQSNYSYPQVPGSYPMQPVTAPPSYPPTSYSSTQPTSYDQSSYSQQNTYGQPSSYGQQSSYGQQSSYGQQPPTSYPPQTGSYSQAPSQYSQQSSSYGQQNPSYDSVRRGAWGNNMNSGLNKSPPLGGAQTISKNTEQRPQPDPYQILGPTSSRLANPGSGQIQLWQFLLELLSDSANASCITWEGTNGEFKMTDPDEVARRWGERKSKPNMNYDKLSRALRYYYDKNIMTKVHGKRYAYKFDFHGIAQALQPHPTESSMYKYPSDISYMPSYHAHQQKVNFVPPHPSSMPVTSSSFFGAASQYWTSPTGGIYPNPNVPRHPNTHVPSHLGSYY
Source text: The disruption of the interaction of RHA with EWS-FLI1 presents an avenue for the development of a class of small molecules as potential therapeutics against the Ewing's family sarcoma tumors.

[1] = system: TC71 (human ESFT cell line); assay: IC50 activity in TC71 cells; format: cell-based
Procedure: Compounds provided in Table 2 were prepared using methods similar to those described herein. The structures and IC50 activities of particular compounds in PANC1 (a human pancreatic carcinoma), TC32 (human ESFT cell line), and TC71 (human ESFT cell line) cells are summarized in Table 2.
Growth inhibition of ESFT cells was measured for various concentrations of particular compounds.

disruption of interaction of RHA with EWS-FLI1 (EWS-FLI1/RHA interaction; co-precipitation)	SMILES	caspase-3 activity (EWS-FLI1 and ESFT cells)	functional inhibition of EWS-FLI1 and ESFT cells (EWS-FLI1 and ESFT cells)	effect on level of EWS-FLI1 or RHA (EWS-FLI1/RHA interaction; immunoblot)	potency compared with YK-4-279 [1]
did disrupt their interactions	COc1ccc(C(=O)CC2(O)C(=O)Nc3c(Cl)ccc(Cl)c32)cc1 (racemic) [YK-4-279]	increase	functionally inhibit EWS-FLI1 and ESFT cells	did not directly affect the level of EWS-FLI1 or RHA	
	CN(C)c1ccc(C(=O)CC2(O)C(=O)Nc3c(Cl)ccc(Cl)c32)cc1 (centres unmarked) [PT-1-17]				appeared to be more potent
